Data on 22 compounds can be found in ChEMBL document CHEMBL2169871, “SIRT1 modulation as a novel approach to the treatment of diseases of aging” (J Med Chem, 2011).

Data set [1] concerns the target T1, NAD-dependent protein deacetylase sirtuin-1 (Homo sapiens) (UniProt Q96EB6).
T1 sequence (whole entry): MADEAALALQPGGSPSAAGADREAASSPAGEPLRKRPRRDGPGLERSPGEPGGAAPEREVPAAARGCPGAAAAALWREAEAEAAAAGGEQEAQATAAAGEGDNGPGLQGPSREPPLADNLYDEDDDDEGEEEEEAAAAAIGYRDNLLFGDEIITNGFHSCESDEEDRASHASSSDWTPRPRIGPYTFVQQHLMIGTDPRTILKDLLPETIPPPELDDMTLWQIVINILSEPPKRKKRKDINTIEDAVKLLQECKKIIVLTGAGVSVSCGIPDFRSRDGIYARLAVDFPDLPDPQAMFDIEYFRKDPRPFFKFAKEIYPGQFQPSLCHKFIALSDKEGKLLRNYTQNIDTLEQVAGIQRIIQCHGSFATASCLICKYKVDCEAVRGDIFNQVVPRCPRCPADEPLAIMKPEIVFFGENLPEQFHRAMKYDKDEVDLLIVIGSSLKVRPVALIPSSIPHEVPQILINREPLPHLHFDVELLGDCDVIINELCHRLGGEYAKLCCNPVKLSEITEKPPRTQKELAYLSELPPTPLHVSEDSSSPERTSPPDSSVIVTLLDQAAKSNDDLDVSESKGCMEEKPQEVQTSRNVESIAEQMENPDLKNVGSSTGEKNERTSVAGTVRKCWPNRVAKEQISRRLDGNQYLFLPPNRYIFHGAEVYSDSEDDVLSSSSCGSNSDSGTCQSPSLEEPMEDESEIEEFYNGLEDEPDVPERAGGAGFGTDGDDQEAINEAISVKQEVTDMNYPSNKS
As to the kind of experiment: Activation of SIRT1 relative to control.

In data set [2] the target is T2, NAD-dependent protein deacetylase sirtuin-1 (Homo sapiens, UniProt Q96EB6).
T2 sequence (Q96EB6 whole entry): T1 sequence (whole entry)
The data set can be described thus: Activation of SIRT1.

The target of data set [3] is T3, NAD-dependent protein deacetylase sirtuin-2 (Homo sapiens, UniProt Q8IXJ6).
T3 sequence (Q8IXJ6 whole entry): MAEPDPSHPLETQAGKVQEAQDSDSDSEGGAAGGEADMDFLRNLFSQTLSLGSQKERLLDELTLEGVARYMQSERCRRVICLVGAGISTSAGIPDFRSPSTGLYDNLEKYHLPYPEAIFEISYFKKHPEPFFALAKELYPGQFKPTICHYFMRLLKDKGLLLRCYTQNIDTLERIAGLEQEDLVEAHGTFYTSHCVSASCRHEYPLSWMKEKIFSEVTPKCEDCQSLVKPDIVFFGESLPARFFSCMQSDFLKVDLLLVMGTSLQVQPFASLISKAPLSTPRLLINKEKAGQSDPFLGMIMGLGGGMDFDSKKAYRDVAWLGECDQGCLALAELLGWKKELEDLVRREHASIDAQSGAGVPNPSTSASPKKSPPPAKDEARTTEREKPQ
As to the kind of experiment: Inhibition of SIRT2.

Data set [4] concerns the target T2, NAD-dependent protein deacetylase sirtuin-1. As to the kind of experiment: Inhibition of SIRT1.
Data set [5] can be described thus: Half life in mouse. Type of data set: ADME, organism-based. Particulars: in vivo.
Data set [6] deals with T4, NAD-dependent protein deacetylase sirtuin-3, mitochondrial (Homo sapiens, UniProt Q9NTG7).
T4 sequence (Q9NTG7 whole entry): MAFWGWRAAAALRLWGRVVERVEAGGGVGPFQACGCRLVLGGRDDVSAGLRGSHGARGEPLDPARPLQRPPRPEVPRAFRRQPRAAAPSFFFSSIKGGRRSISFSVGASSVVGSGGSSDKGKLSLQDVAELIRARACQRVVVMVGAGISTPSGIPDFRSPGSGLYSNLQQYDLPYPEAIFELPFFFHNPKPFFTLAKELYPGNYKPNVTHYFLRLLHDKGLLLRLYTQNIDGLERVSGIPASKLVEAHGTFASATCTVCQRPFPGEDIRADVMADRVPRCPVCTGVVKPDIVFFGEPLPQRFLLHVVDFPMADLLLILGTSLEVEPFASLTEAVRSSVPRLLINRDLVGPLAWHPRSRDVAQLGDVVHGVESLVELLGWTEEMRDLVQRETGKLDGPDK
As to the kind of experiment: Inhibition of SIRT3.

For data set [7], the system named is Mus musculus. As to the kind of experiment: Increase of SIRT1 mRNA expression in mouse brain at 12.5 mg/kg qd for 7 days by RT-PCR analysis. Type of data set: functional.
The subject of data set [8] is Mus musculus. As to the kind of experiment: Increase of SIRT1 mRNA expression in mouse soleus muscle at 12.5 to 25 mg/kg qd for 7 days by RT-PCR analysis. The data set is classed as functional. To be noted: dose mg/kg 12.5-25.
Data set [9] has as its system Mus musculus. As to the kind of experiment: Increase of SIRT1 mRNA expression in mouse brain at 25 mg/kg qd for 7 days by RT-PCR analysis. The data set is classed as functional.

By Emax is commonly meant the greatest response seen or fitted, relative to the assay's reference. In general, EC50 refers to the midpoint of the concentration-response curve. High values mean a need for much substance, low ones an effect from little substance. Regarding `COc1ccc(C(=O)Nc2ccccc2-c2nc3ncccc3o2)cc1OC`, in [1], the maximal effect (Emax) turned out to be 170%. This compound also displayed a concentration for a half-maximal effect (EC50) in [2] of 0.9 µM.
By IC50 is commonly meant the concentration needed to halve the response being measured. A higher IC50 goes with weaker potency. `O=C1NC(=S)NC(=O)C1=Cc1cccc2ccccc12`: the IC50 stood at 9 µM in data set [3] and 13 µM in [4].
In data set [4], `NC(=O)c1ccccc1Nc1ccccc1` [ANILINOBENZAMIDE] had an IC50 of 17 µM.
In data set [2], `O=C(Nc1ccccc1-c1nc2cccnc2s1)c1cc(NC[C@@H](O)CO)nc(-c2ccccc2)n1` had an EC50 of less than 0.25 µM.
In the case of `O=C1NC(=S)NC(=O)C1=Cc1cc2ccccc2[nH]1`, the figures for the IC50 in data set [3] and in data set [4] were 20 µM and 6 µM, respectively.
As usually defined, the half-life is how long it takes for the measured level to halve. As for `NC(=O)C1CCCc2c1[nH]c1ccc(Cl)cc21` (configuration not stated), the half-life in data set [5] was 3.23 h.
With `O=C1Nc2c(ccc(Cl)c2Cl)/C1=C/c1cc(Br)c(O)c(Br)c1`, the IC50 in data set [3] came out at 28 µM; in [4], 40 µM.
In turn, `O=C(Nc1ccccc1-c1nc2ccccc2[nH]1)c1cnc2ccccc2n1` returned an Emax in [1] of 253%. The compound further registered a concentration giving a half-maximal response (EC50) in data set [2] of 0.3 µM.
On to `CC(=S)NCCCC[C@H](NC(=O)OCc1ccccc1)C(=O)Nc1ccccc1`, for which the concentration for half-maximal inhibition (IC50) in data set [6] is more than 100 µM.
Turning to `COc1ccc(C(=O)Nc2cccc(-c3nc4ncccc4o3)c2)cc1OC`, in data set [1], the Emax came to 240%. This compound also registered an EC50 in data set [2] of 6 µM.
Consider `Cc1ccc2[nH]c(=O)c(C=C3C(=O)NC(=S)NC3=O)cc2c1`, for which the IC50 in [3] was found to be 11 µM; in data set [4] it was 13 µM.
In the case of `O=c1c(O)c(-c2ccc(O)c(O)c2)oc2cc(O)cc(O)c12` [QUERCETIN], the Activity is 50% in the data set with Mus musculus [7], 200% in the data set with Mus musculus [8] and 100% in the data set with Mus musculus [9].
Take `O=C(Nc1ccccc1-c1nc2cccnc2s1)c1cc(N2CCNCC2)nc(-c2ccccc2)n1`: in data set [2], the half-maximal effective concentration (EC50) was less than 0.25 µM.
With `O=C(Nc1nccs1)c1cccc2[nH]c(-c3cccc(C(F)(F)F)c3)nc12`, the maximum response (Emax) in [1] was more than 200%. Besides, the concentration giving a half-maximal response (EC50) in data set [2] was less than 1 µM.
`Cc1ccc(C(=O)Nc2ccc(S(=O)(=O)O)c3cc(S(=O)(=O)O)cc(S(=O)(=O)O)c23)cc1NC(=O)c1cccc(NC(=O)Nc2cccc(C(=O)Nc3cc(C(=O)Nc4ccc(S(=O)(=O)O)c5cc(S(=O)(=O)O)cc(S(=O)(=O)O)c45)ccc3C)c2)c1` [SURAMIN HEXASODIUM] returned a concentration for half-maximal inhibition (IC50) in data set [3] of 1.2 µM.
In turn, `O=C(Nc1ccc(CN2CCNCC2)cc1-c1nc2ccccc2[nH]1)c1cnc2ccccc2n1` had an Emax in data set [1] of 820%. The compound also had a concentration for a half-maximal effect (EC50) in [2] of 0.4 µM.
As for `O=c1[nH]c(=S)[nH]c(-c2ccc(Br)cc2)c1Cc1c(O)ccc2ccccc12`, the 50% inhibitory concentration (IC50) in data set [4] was 13 µM.
Regarding `CCOC(=O)CC(=O)NCCCC[C@H](NC(=O)OCc1ccccc1)C(=O)Nc1ccccc1`, the results for the IC50 in data set [3], in data set [6] and in data set [4] were 65 µM, more than 300 µM and 4 µM, respectively.
`CN(C)c1cccc(C(=O)Nc2ccccc2-c2nc3ncccc3o2)c1`: the maximal response (Emax) in data set [1] came to 209%. In data set [2], the EC50 stood at 4.4 µM.
In data set [2], `O=C(Nc1ccccc1-c1nc2cccnc2s1)c1cc(N2CCOCC2)nc(-c2ccccc2)n1` had a 50% effective concentration (EC50) of less than 0.25 µM.
`CN(C)c1cccc(C(=O)Nc2cccc(-c3nc4ncccc4o3)c2)c1` registered a maximal response (Emax) in data set [1] of 207%. The compound also yielded an EC50 in data set [2] of 25 µM.
Take `O=C1c2cccc3cccc(c23)C(=O)N1CCNCCCNCCCNCCN1C(=O)c2cccc3cccc(c23)C1=O`: the concentration for half-maximal inhibition (IC50) in data set [4] is 43 µM.
